Measured values reported in article PMC9606171, “Synthetic PPAR Agonist DTMB Alleviates Alzheimer’s Disease Pathology by Inhibition of Chronic Microglial Inflammation in 5xFAD Mice” (Neurotherapeutics, 2022).

How the values were obtained:
[1] = system: RAW 264.7 macrophage cells; experiment: Griess assay, LPS-induced NO production; type: cell-based; settings: LPS (1 µg/mL), 24 h
Protocol: Griess assay (Promega) was performed under manufacturer’s instruction to measure the concentration of nitrite after inducing the inflammatory response in RAW 264.7 macrophage cells by LPS treatment. The well-known PPAR selective agonists, such as WY14643 (PPARα), GW501516 (PPAR-β/δ), and rosiglitazone (PPARγ), were used as positive controls.

[2] = molecular target: T1, PPARα (Homo sapiens, UniProt Q07869); experiment: Gal4-transactivation luciferase assay in HEK293A cells, PPARα LBD; type: cell-based
T1 construct: pcDNA5-GAL4-PPAR LBD, pG5-luc, and Rluc vector (as control) were transfected into HEK293A cells; expressed in transfected cells; host or cells: HEK293A
T1 sequence (Q07869 239-466 limits assumed): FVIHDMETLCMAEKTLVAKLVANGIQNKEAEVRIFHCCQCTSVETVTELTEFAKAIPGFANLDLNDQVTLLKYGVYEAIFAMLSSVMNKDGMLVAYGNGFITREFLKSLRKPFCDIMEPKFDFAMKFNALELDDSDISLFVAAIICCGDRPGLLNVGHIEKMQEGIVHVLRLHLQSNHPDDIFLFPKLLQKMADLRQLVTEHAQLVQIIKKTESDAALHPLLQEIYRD
Protocol: HEK293A cells were transfected with the GAL4-reporter plasmids and pGL4.74 (Promega, Madison, WI, USA) as an internal standard through electroporation using a Neon Transfection System (Invitrogen, Carlsbad, CA, USA). All vector materials were provided by Professor Yuichiro Kanno at Toho University. Cells were treated with DTMB and each positive control compound for 24 h after overnight incubation. Cells were then harvested and resuspended in luciferase lysis buffer (Promega), followed by incubation on ice for 10 min. Cell debris was removed by centrifugation at 20,000 × g at 4 °C for 10 min, and the supernatants were used for luciferase assay. Using a dual-luciferase reporter assay system (Promega), luciferase activities were measured according to the manufacturer’s instructions. Experimental firefly luciferase activities were normalized against those of Renilla luciferase.

[3] = system: RAW 264.7; experiment: Cell viability assay (MTT), RAW 264.7; type: cell-based; settings: 48 h
Protocol: Cell viability was measured by chromogenic assay involving the biological reduction of 3-(4,5-dimethyl-thiazol-2-yl)-2,5-diphenyltetrazoliumbromide (MTT) to formazan in living cells. Briefly, cells were seeded in 96-well plates in a final volume of 100 μL. After 24 h, the culture media were replaced with fresh media containing DTMB compounds, and the cells were cultured for another 48 h. Next, MTT (5 mg/mL in PBS) was added to the culture medium. The cells were incubated for 1 h in the dark at 37 °C, and the supernatant was then removed from the well. Total MTT solvent (4 mM HCl and 0.1% Nonidet P-40, both in isopropanol) was added to dissolve the formazan crystal, and absorbance was measured at 570 nm using a microplate reader Infinite 200 Pro NanoQuant microplate reader (TECAN, Switzerland).

[4] = system: 5xFAD mice; experiment: Bulk RNA-seq of hippocampus and cortex; type: in vivo
Protocol: (§1) DTMB was synthesized from Daejung Chemicals (Korea) and was dissolved in dimethyl sulfoxide (Sigma Aldrich, St. Louis, MO, USA) for cell-based experiments. To evaluate the effects of DTMB on 5xFAD mice, DTMB (10 mg/kg) and vehicle (1% carboxymethylcellulose and 10% DMSO) were orally administrated to four groups (wild-type, wild-type + DTMB, 5xFAD, and 5xFAD + DTMB) with a 6 day per week for 3 months.
RNA-seq libraries were prepared using the NEBNext® Ultra II Directional RNA Library Prep Kit for Illumina (BioLabs, MA, USA) and sequenced on Illumina HiSeq 2500 (San Diego, CA, USA). RNA-seq reads with adapter sequence were trimmed using cutadapt and aligned to the Mouse Ensemble Archive Release 100 by STAR [26]. Gene expression levels were quantified by RSEM [27]. Differential expression analysis was performed by DESeq2 [28], and functional enrichment of Gene ontology (GO) terms and pathways was estimated by Metascape. Pathway enrichment was estimated by GSEA [30] with the following options: “-metric log2_Ratio_of_Classes -permute gene_set.”

[5] = system: 5xFAD mice; experiment: Morris water maze in 5xFAD mice; type: in vivo; settings: 10 mg/kg orally, 3 months
Protocol: as §1
A white water maze tank (120 cm diameter) was filled with water containing white non-toxic tempera paint to make the water opaque. The maze tank was divided into four quadrants, and four different visual cues were placed at each cardinal point. The water temperature was set to 20–22 °C. The Morris water maze experiment was divided into a training session, during which the mice were placed in the tank to find the platform for five consecutive days, followed by a probe test on day 6. Each mouse was trained over three trials per day and the starting quadrant was different for each trial. The duration of each training trials was 1 min and we guided the mice to the platform thereafter. In the probe test on day 6, the platform was removed, and each mouse was allowed to swim for 60 s. Target quadrant occupancy was measured automatically using a SMART v2.5 video tracking system (Panlab, TX, USA). Sample sizes were 20–25 mice per group.

[6] = system: 5xFAD mice; experiment: Y-maze test in 5xFAD mice; type: in vivo; settings: 10 mg/kg orally, 3 months
Protocol: as §1
The Y-maze test was conducted using a black y-shaped maze apparatus that has three equal-sized arms (40 × 3 × 12 cm) separated at 120° angles. The mice were placed into the same side of the arm at every trial and freely moved for 8 min under the dim light conditions (50 lx). To measure spatial memory, the number of arm entries to other sides was measured. The percentage of spontaneous alternation was calculated using the following formula: 100×(ActualAlteration/(Total#ofarmentrance-2)) . Sample sizes were 20–25 mice per group.

[7] = system: 5xFAD mice; experiment: Immunohistochemistry of gliosis (Iba-1, GFAP) in 5xFAD brain; type: in vivo; settings: cortex and hippocampus, versus transgenic controls
Protocol: as §1
Mice were perfused with ice-cold phosphate-buffered saline (PBS). Brain tissues were separately used for either molecular analysis or immunohistochemistry. The right hemisphere was fixed with 4% PFA and was transferred to a sucrose solution (30%) for 24 h. The right hemisphere was embedded and frozen in optimal cutting temperature compound on dry ice. Coronal Sections (18 μm thick) that included the hippocampus were cut and prepared on slide glasses. Tissue sections were then permeabilized and blocked using a blocking solution (5% goat serum and 0.2% Triton X-100 in PBS) for 1 h at room temperature. Primary antibody incubation was performed overnight at 4 °C using an anti-6e10 antibody (Biolegend, Japan, 1:100), anti-Iba1 antibody (Wako, Japan, 1:200), and anti-GFAP antibody (Abcam, Cambridge, UK, 1:200). […] Slides were counterstained in Hoechst and then mounted in fluorescence mounting medium (Dako, Denmark). […] Fluorescence was measured by calculating % area and was analyzed using ImageJ. […]

## COc1ccc(-c2cc(=O)oc3c(C)c(OC(=O)[C@H](Cc4c[nH]c5ccccc45)NC(=O)OC(C)(C)C)ccc23)cc1 [DTMB]
[1]
  NO production (nitrite): reduced NO production in a concentration-dependent manner
  inhibition of NO production compared between DTMB and known PPAR agonists: inhibited NO production greater than treatment with the known agonists of PPARα and PPARγ
[2]; HEK293A, 24 h, various concentrations
  relative luciferase activity: increased luciferase activity
[2]; versus WY14643
  transactivation (luciferase activity) compared to positive control: stronger than the positive control
[3]
  cytotoxicity (MTT): no cytotoxicity
[4]; hippocampus
  gene expression level of Ece1: significantly increased
[4]; hippocampus and cortex, not statistically significant (p-value is 0.27)
  expression of neprilysin: increased
[5]
  target quadrant occupancy (probe test, day 6): markedly improved
[6]
  Y-maze alternation: improvement with a percentage similar to that of the wild-type mouse group
[7]
  percentage of areas stained for Iba-1 and GFAP (gliosis of microglia and astrocyte): decreased
